pIC50: −log10 of the molar value.

The target of series [1] is cAMP PDE. The series is described as follows: Phosphodiesterase (PDE) inhibitory activity, cAMP substrate. Conditions: 0.14 μM 14C-labeled cAMP, pH 8.0, 30° C., 20 minutes, crude enzyme from rat brains; read-out: I50 cAMP PDE. It counts as biochemical, rat. The protocol:
(§1) The test was carried out following essentially the method of A. L. Pichard and Y. U. Chung [Journal of Biological Chemistry, 251, 5726-5737 (1976)]. A crude enzymatic solution derived from rat brains was used as the source of cAMP PDE.
(§2) ^14 C-labeled cAMP was used as the substrate. It was employed in a 0.2M Tris-hydrochloric acid buffer solution (pH 8.0) in an amount sufficient to provide a final concentration of 0.14 μM. "Tris" is tris(hydroxymethyl)aminomethane. The substrate solution was mixed with an appropriate amount of the compound under test dissolved in 2-5 μl of dimethyl sulfoxide and with 20 μl of a snake venom solution and 40 μl of the crude enzyme solution. Sufficient Tris-hydrochloric acid buffer was added to make a total volume of 100 μl. The mixture was allowed to react at 30° C. for 20 minutes. At the end of this time, the reaction mixture was treated with an Amberlite (trade mark) IRP-58 resin and the level of residual adenosine radioactivity in the product was determined.

Series [2] deals with cGMP PDE. The series can be described thus: Phosphodiesterase (PDE) inhibitory activity, cGMP substrate. It counts as biochemical. Conditions: cGMP as substrate, crude enzyme from rat brains; read-out: I50 cGMP PDE. The protocol:
as §1, §2
The experiment was repeated, except that cyclic guanosine monophosphate (cGMP) was employed as the substrate instead of cAMP. The I50 value against cGMP PDE was also calculated.

Series [3] concerns cerebral blood flow. The series is described as follows: Improving cerebral blood flow. Type of series: in vivo, rabbit. The text has this: The "duration (T1/2)" is the time in minutes required for the increase in cerebral blood flow to reduce by one half.

In the case of `Nc1ncnc2c1ncn2C1OC2=CC(CC(=O)O)(C(=O)O)OC2[C@H]1O` (some centres unmarked) [Compound No. 133, 7'-deoxygriseolic acid], the pIC50 in series [1] was 6.85. Besides, the pIC50 in series [2] was 5.96. Further, in series [3] (10 mg/kg), the “Duration (T 1/2)” value was over 60 min and the “Increase in cerebral blood flow (Vp), ratio to papaverine 1 mg/kg” value (shortened to “Increase … ratio to papaverine 1 mg/kg”) was 10.
Consider `Nc1ncnc2c1ncn2C1CC2OC(C(=O)O)([C@@H](O)C(=O)O)C=C2O1` (some centres unmarked) [Compound No. 144, 2'-deoxygriseolic acid], for which the pIC50 in series [1] is 6.72; in series [2], 5.96.
For `CC(=O)O[C@@H]1C2OC(C(=O)O)([C@@H](OC(C)=O)C(=O)O)C=C2OC1n1cnc2c(N)ncnc21` (some centres unmarked) [Compound No. 41, O^2',O^7' -diacetylgriseolic acid] the same measures were 5.03 and 3.61.
For `Nc1ncnc2c1ncn2C1OC2=CC(C(=O)O)([C@@H](O)C(=O)O)OC2[C@@H]1Cl` (stereo partly drawn) [Compound No. 142, 2'(S)-chloro-2'-deoxygriseolic acid] the same measures were 6.82 and 5.60.
Turning to `Nc1ncnc2c1ncn2C1OC2=CC(C(=O)O)([C@@H](O)C(=O)O)OC2[C@@H]1Br` (stereo partly drawn) [Compound No. 143, 2'(S)-bromo-2'-deoxygriseolic acid], the results for the pIC50 in series [1] and in series [2] were 7.05 and 5.39, respectively.
For `Cn1c(=O)c2[nH]cnc2n(C)c1=O` [theophylline, reference compound], the pIC50 in series [1] was 3.44; in series [2] it was 3.71.
Regarding `O=C(O)[C@H](O)C1(C(=O)O)C=C2OC(n3cnc4c(NCc5ccccc5)ncnc43)[C@H](O)C2O1` (some centres unmarked) [Compound No. 63, N^6 -benzylgriseolic acid], the pIC50 is 5.13 in series [1] and 5.01 in series [2].
For the compound `COc1ncnc2c1ncn2C1OC2=CC(C(=O)O)([C@@H](O)C(=O)O)OC2[C@H]1O` (some centres unmarked) [Compound No. 124, 6-desamino-6-methoxygriseolic acid], the pIC50 in series [1] was 5.00; in series [2], 5.31.
In the same order, the values of `O=C(O)C(O)C1(C(=O)O)C=C2OC(n3cnc4c(=O)[nH]cnc43)C(O)C2O1` (centres unmarked) [Compound No. 51, 6-desamino-6-hydroxygriseolic acid] are 6.49 and 6.89.
For `Nc1ncnc2c1ncn2C1OC2=CC(C(=O)O)([C@@H](O)C(=O)O)OC2[C@@H]1N` (stereo partly drawn) [Compound No. 248, 2'(S)-amino-2'-deoxygriseolic acid], the pIC50 in series [1] is 5.49; in series [2], 4.90.
For the compound `Nc1ncnc2c1ncn2C1OC2=CC(C(=O)O)([C@@H](OC(=O)c3ccccc3)C(=O)O)OC2[C@H]1O` (some centres unmarked) [Compound No. 37, O^7' -benzoylgriseolic acid], the pIC50 in series [1] is 6.51; in series [2], 5.54.
For `NNc1ncnc2c1ncn2C1OC2=CC(C(=O)O)([C@@H](O)C(=O)O)OC2[C@H]1O` (some centres unmarked) [Compound No. 60, 6-desamino-6-hydrazinogriseolic acid] the same measures were 5.27 and 5.32.
Regarding `COc1ccc(Cc2nccc3cc(OC)c(OC)cc23)cc1OC` [Papaverine, papaverine, reference compound], in series [3] (1 mg/kg), the “Change in blood pressure (pascals)” value is -1040 pascals and the “Change in blood pressure mm Hg” value is given as -7.8 mm Hg.
`[N-]=[N+]=N[C@H]1C2OC(C(=O)O)([C@@H](O)C(=O)O)C=C2OC1n1cnc2c(N)ncnc21` (stereo partly drawn) [Compound No. 247, 2'(S)-azido-2'-deoxygriseolic acid]: the pIC50 in series [1] was 6.35; in series [2] it was 5.19.
For the compound `CC[C@]12CCCN3CCc4c(n(c5ccccc45)[C@@](O)(C(=O)OC)C1)[C@@H]32` [Vincamine, reference compound], in series [3] (1 mg/kg), the “Duration (T 1/2)” value stood at 3.2 min and the “Increase … ratio to papaverine 1 mg/kg” value is listed as 1.7. For the same compound, in series [3] (2.5 mg/kg), the “Duration (T 1/2)” value stood at 2.1 min and the “Increase … ratio to papaverine 1 mg/kg” value is 3.2.
Regarding `Nc1ncnc2c1ncn2C1OC2=CC(C(=O)O)([C@H](Br)C(=O)O)OC2[C@H]1O` (stereo partly drawn) [Compound No. 137, 7'(S)-bromo-7'-deoxygriseolic acid], the pIC50 in series [1] was 5.47; in series [2], 4.72.
With `COc1nc2c(N)ncnc2n1C1OC2=CC(C(=O)O)([C@@H](O)C(=O)O)OC2[C@H]1O` (some centres unmarked) [Compound No. 195, 8-methoxygriseolic acid], the pIC50 in series [1] is 5.41; in series [2], 5.49.
Turning to `Nc1ncnc2c1ncn2C1OC2=CC(C(=O)O)([C@@H](OC(=O)c3ccccc3)C(=O)O)OC2[C@H]1OC(=O)c1ccccc1` (some centres unmarked) [Compound No. 40, O^2',O^7' -dibenzoylgriseolic acid], the pIC50 in series [1] was 5.49; in series [2] it was 4.05.
In the case of `CNc1ncnc2c1ncn2C1OC2=CC(C(=O)O)([C@@H](O)C(=O)O)OC2[C@H]1O` (some centres unmarked) [Compound No. 58, N^6 -methylgriseolic acid], the pIC50 is 5.70 in series [1] and 4.85 in series [2].
For `COC(=O)C1=C(C)NC(C)=C(C(=O)OCCN(C)Cc2ccccc2)C1c1cccc([N+](=O)[O-])c1` (centres unmarked) [Nicardipine, reference compound], in series [3] (0.01 mg/kg), the “Duration (T 1/2)” value stood at 14 min and the “Increase … ratio to papaverine 1 mg/kg” value worked out at 3.2.
For `Nc1ncnc2c1ncn2C1OC2=CC(C(=O)O)([C@H](N)C(=O)O)OC2[C@H]1O` (stereo partly drawn) [Compound No. 135, 7'(S)-amino-7'-deoxygriseolic acid], the pIC50 in series [1] was 5.70; in series [2], 5.38.
In the case of `CC(=O)O[C@@H](C(=O)O)C1(C(=O)O)C=C2OC(n3cnc4c(=N)n(Cc5ccccc5)cnc43)[C@H](O)C2O1` (some centres unmarked) [Compound No. 46, O^7' -acetyl-N^1 -benzylgriseolic acid], the pIC50 in series [1] was 5.74; in series [2] it was 6.05.
For `O=C(O)C(O)C1(C(=O)O)C=C2OC(n3c(Br)nc4c(=O)[nH]cnc43)C(O)C2O1` (centres unmarked) [Compound No. 197, 8-bromo-6-desamino-6-hydroxygriseolic acid], the results for the pIC50 in series [1] and in series [2] were 4.60 and 4.88, respectively.
As for `Nc1ncnc2c1ncn2C1OC2=CC(C(=O)O)([C@@H](O)C(=O)O)OC2[C@@H]1I` (stereo partly drawn) [Compound No. 249, 2'-deoxy-2'(S)-iodogriseolic acid], the pIC50 in series [1] is 6.36; in series [2] it was 5.55.
For `CN(C)c1ncnc2c1ncn2C1OC2=CC(C(=O)O)([C@@H](O)C(=O)O)OC2[C@H]1O` (some centres unmarked) [Compound No. 59, N^6 -dimethylgriseolic acid] the same measures were 4.51 and 4.41.
For `Nc1ncnc2c1nc(Br)n2C1OC2=CC(C(=O)O)([C@@H](O)C(=O)O)OC2[C@H]1O` (some centres unmarked) [Compound No. 196, 8-bromogriseolic acid] the same measures were 5.60 and 5.77.
With `Nc1ncnc2c1ncn2C1OC2=CC(C(=O)O)([C@H](O)C(=O)O)OC2[C@H]1O` (stereo partly drawn) [Compound No. 140, 7'-deoxy-7'(S)-hydroxygriseolic acid], the pIC50 in series [1] is 6.12; in series [2], 5.55.
On to `Nc1ncnc2c1ncn2C1OC2=CC(C(=O)O)(C(Cl)C(=O)O)OC2[C@H]1O` (some centres unmarked) [Compound No. 88, 7'-chloro-7'-deoxygriseolic acid], for which the figures for the pIC50 in series [1] and in series [2] were 5.82 and 4.83, respectively.
For the compound `Nc1ncnc2c1nc(Br)n2C1OC23OC(C(=O)O)C(C(=O)O)(OC2[C@H]1O)C3Br` (stereo partly drawn) [Compound No. 187, 4',7'-anhydro-5',α,8-dibromo-4'α-hydroxygriseolic acid], the pIC50 in series [1] is 4.46; in series [2], 4.49.
For `O=C(O)[C@H](O)C1(C(=O)O)C=C2OC(n3cnc4cncnc43)[C@H](O)C2O1` (some centres unmarked) [Compound No. 53, 6-desamino-6-hydrogriseolic acid] the same measures were 4.85 and 5.92.
In the case of `[N-]=[N+]=N[C@H](C(=O)O)C1(C(=O)O)C=C2OC(n3cnc4c(N)ncnc43)[C@H](O)C2O1` (some centres unmarked) [Compound No. 81, 7'-azido-7'-deoxygriseolic acid], the pIC50 in series [1] is 5.36; in series [2], 4.89.
For `O=C(Nc1ncnc2c1ncn2C1OC2=CC(C(=O)O)([C@@H](OC(=O)c3ccccc3)C(=O)O)OC2[C@H]1O)c1ccccc1` (some centres unmarked) [Compound No. 39, N^6,O^7' -dibenzoylgriseolic acid], the pIC50 is 4.48 in series [1] and 3.95 in series [2].
For `Nc1ncnc2c1nc(S)n2C1OC2=CC(C(=O)O)([C@@H](O)C(=O)O)OC2[C@H]1O` (some centres unmarked) [Compound No. 192, 8-mercaptogriseolic acid], the values for the pIC50 in series [1] and in series [2] were 4.52 and 4.30, respectively.
As to `N=c1c2ncn(C3OC4=CC(C(=O)O)([C@@H](O)C(=O)O)OC4[C@H]3O)c2ncn1Cc1ccccc1` (some centres unmarked) [Compound No. 45, N^1 -benzylgriseolic acid], the values for the pIC50 in series [1] and in series [2] were 6.22 and 5.92, respectively.
Regarding `Nc1ncnc2c1ncn2C1OC2=CC(C(=O)O)([C@@H](O)C(=O)O)OC2[C@H]1OC(=O)c1ccccc1` (some centres unmarked) [Compound No. 36, O^2' -benzoylgriseolic acid], the pIC50 in series [1] is 5.17; in series [2], 4.32.

(Values after patent publication US4634706A, “Griseolic acid derivatives, and their use as enzyme inhibitors” (Sankyo Company Limited, priority 1983, dated 1987).)
